# Experimental data from patent US11691980B2, “Liphagal analog and multi-targeted kinase inhibitor containing liphagal or analog thereof” (TOHOKU UNIVERSITY, priority 2017, dated 2023).
# What was measured:
# Assay type in all cases: biochemical
# [1] = target: T1, SPHK2 (Homo sapiens, UniProt Q9NRA0); assay: mobility shift assay
# T1 construct: purchased Carna Biosciences
# [2] = target: T2, FGFR3 (Homo sapiens, UniProt P22607); assay: mobility shift assay
# T2 construct: purchased Carna Biosciences
# [3] = target: T3, SGK (Homo sapiens, UniProt O00141); assay: mobility shift assay
# T3 construct: purchased Carna Biosciences
# [4] = target: CDK7/CycHMAT1 (Homo sapiens, UniProt P50613); assay: mobility shift assay; design: purchased Carna Biosciences
# Sequence of CDK7/CycHMAT1 (P50613 whole entry): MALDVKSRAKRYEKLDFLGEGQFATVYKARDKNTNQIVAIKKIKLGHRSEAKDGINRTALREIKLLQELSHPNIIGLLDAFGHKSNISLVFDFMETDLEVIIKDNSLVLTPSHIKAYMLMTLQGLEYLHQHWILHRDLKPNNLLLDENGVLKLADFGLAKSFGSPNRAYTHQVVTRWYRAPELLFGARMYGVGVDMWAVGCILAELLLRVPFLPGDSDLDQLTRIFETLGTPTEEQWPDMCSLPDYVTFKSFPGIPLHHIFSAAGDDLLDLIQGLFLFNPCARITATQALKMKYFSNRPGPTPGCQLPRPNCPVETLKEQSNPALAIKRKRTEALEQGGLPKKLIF
# Sequence of CDK7/CycHMAT1 (P51946 whole entry partner): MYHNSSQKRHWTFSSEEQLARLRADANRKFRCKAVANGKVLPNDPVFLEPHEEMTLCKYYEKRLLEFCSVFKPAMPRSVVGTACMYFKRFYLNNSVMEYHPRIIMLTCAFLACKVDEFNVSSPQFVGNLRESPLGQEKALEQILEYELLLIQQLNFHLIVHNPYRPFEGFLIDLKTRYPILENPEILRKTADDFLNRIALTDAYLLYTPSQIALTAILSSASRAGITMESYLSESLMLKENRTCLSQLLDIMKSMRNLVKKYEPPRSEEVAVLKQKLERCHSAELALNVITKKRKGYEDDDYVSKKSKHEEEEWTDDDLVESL
# Sequence of CDK7/CycHMAT1 (P51948 whole entry partner): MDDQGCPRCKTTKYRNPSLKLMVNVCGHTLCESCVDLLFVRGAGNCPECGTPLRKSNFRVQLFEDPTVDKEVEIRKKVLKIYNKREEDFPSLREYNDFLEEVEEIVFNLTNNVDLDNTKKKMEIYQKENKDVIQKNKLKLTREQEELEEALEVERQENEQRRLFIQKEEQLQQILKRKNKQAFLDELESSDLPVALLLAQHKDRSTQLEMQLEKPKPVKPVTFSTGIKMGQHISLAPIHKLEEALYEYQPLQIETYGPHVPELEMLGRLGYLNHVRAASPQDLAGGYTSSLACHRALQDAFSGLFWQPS
# [5] = target: T4, FLT3 (Homo sapiens, UniProt P36888); assay: mobility shift assay
# T4 construct: purchased Carna Biosciences
# [6] = target: T5, NEK4 (Homo sapiens, UniProt P51957); assay: mobility shift assay
# T5 construct: purchased Carna Biosciences
# [7] = target: T6, MAP2K6_Cascade (Homo sapiens, UniProt P52564); assay: mobility shift assay
# T6 construct: purchased Carna Biosciences
# [8] = target: T7, ACK (Homo sapiens, UniProt Q07912); assay: mobility shift assay
# T7 construct: purchased Carna Biosciences
# T7 sequence (Q07912 whole entry): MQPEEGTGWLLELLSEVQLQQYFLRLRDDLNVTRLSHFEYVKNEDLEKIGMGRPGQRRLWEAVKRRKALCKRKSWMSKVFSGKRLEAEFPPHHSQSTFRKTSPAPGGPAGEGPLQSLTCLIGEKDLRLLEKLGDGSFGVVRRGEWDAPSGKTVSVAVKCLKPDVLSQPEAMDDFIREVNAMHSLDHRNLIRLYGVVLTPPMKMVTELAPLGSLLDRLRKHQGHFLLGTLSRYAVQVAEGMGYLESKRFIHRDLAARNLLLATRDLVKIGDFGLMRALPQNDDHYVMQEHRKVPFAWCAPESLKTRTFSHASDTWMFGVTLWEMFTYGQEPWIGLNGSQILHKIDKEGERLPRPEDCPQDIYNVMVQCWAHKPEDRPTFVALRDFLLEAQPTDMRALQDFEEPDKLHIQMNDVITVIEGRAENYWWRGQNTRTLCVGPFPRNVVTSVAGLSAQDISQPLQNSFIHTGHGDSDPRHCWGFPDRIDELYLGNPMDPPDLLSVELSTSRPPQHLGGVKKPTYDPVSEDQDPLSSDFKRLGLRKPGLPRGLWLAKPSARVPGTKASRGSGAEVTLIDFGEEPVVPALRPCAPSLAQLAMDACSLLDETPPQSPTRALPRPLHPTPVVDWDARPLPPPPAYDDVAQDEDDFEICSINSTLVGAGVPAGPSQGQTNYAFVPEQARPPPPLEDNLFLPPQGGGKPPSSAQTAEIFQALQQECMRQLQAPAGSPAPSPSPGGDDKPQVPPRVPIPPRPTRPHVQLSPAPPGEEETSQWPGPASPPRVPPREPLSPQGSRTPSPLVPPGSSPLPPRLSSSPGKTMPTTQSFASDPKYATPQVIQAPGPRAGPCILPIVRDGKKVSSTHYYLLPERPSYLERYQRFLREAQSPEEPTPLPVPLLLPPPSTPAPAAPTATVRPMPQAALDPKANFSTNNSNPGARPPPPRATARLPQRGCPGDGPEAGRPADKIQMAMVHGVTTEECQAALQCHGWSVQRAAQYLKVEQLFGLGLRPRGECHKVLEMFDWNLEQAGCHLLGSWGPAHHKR
# [9] = target: T8, PEK (Homo sapiens, UniProt Q9NZJ5); assay: IMAP Assay
# T8 construct: purchased Carna Biosciences
# T8 sequence (Q9NZJ5 30-1116): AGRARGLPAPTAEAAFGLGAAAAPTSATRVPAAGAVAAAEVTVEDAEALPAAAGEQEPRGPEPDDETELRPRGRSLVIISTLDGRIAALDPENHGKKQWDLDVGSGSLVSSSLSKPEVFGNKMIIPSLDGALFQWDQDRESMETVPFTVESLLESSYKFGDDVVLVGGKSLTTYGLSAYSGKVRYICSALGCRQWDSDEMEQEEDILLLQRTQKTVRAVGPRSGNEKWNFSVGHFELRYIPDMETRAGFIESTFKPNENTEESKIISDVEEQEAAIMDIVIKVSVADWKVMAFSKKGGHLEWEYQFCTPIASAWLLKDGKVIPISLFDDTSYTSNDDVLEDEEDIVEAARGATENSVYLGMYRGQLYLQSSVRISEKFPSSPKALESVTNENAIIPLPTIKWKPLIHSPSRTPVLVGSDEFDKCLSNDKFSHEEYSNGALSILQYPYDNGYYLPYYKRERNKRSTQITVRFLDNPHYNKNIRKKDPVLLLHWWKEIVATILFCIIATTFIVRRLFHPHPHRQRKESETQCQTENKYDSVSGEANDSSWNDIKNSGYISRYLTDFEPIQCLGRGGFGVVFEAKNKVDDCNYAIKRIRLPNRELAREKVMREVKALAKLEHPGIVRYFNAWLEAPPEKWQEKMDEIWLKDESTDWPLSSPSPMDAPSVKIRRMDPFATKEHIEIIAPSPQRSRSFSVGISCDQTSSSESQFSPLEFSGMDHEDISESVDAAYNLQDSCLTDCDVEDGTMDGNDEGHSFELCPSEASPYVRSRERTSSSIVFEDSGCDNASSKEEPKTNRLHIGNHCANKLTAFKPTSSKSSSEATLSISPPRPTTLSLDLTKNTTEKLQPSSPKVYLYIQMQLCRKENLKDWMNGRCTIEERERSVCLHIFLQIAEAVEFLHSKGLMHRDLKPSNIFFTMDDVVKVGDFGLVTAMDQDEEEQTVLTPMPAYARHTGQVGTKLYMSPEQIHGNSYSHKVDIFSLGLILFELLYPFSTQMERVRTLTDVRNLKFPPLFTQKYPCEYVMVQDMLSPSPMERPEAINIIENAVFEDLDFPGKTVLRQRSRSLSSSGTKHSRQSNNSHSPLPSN
# [10] = target: T9, TRKC (Homo sapiens, UniProt Q16288); assay: mobility shift assay
# T9 construct: purchased Carna Biosciences
# [11] = target: T10, CaMK4 (Homo sapiens, UniProt Q16566); assay: mobility shift assay
# T10 construct: purchased Carna Biosciences
# [12] = target: T11, EPHA7 (Homo sapiens, UniProt Q15375); assay: mobility shift assay
# T11 construct: purchased Carna Biosciences
# [13] = target: T12, MLK3_Cascade (Homo sapiens, UniProt Q16584); assay: mobility shift assay
# T12 construct: purchased Carna Biosciences
# T12 sequence (Q16584 whole entry): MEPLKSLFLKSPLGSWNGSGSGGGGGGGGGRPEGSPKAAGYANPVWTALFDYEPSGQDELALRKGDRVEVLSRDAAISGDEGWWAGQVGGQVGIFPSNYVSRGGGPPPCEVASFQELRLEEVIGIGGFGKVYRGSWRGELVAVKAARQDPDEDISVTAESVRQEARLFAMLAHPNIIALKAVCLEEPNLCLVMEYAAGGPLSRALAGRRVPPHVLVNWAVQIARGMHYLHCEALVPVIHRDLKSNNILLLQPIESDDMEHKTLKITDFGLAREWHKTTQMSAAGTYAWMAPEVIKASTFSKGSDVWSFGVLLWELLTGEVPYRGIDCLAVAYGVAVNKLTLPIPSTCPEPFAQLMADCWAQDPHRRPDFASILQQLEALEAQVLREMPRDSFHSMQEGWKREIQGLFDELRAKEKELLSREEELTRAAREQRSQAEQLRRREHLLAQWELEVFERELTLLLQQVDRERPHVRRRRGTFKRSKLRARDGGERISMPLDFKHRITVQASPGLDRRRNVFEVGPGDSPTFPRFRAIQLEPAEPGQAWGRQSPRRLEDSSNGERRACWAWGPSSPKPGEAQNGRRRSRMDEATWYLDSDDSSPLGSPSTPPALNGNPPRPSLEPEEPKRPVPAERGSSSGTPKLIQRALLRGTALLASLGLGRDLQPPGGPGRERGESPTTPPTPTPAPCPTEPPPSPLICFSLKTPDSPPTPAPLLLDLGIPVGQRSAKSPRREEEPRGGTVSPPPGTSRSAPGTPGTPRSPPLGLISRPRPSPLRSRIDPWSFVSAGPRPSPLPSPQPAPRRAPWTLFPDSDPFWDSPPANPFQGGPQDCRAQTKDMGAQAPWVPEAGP
# [14] = target: T13, PKD3 (Homo sapiens, UniProt O94806); assay: mobility shift assay
# T13 construct: purchased Carna Biosciences
# [15] = target: T14, COT_Cascade (Homo sapiens, UniProt P41279); assay: mobility shift assay
# T14 construct: purchased Carna Biosciences
# [16] = target: T15, DLK_Cascade (Homo sapiens, UniProt Q12852); assay: mobility shift assay
# T15 construct: purchased Carna Biosciences
# [17] = target: T16, PAK2 (Homo sapiens, UniProt Q13177); assay: mobility shift assay
# T16 construct: purchased Carna Biosciences
# [18] = target: T17, TAOK2 (Homo sapiens, UniProt Q9UL54); assay: mobility shift assay
# T17 construct: purchased Carna Biosciences
# [19] = target: T18, RET(S891A) (Homo sapiens, UniProt P07949, S891A); assay: mobility shift assay
# T18 construct: purchased Carna Biosciences
# [20] = target: T19, KIT(V654A) (Homo sapiens, UniProt P10721, V654A); assay: mobility shift assay
# T19 construct: purchased Carna Biosciences
# [21] = target: T20, MST2 (Homo sapiens, UniProt Q13188); assay: mobility shift assay
# T20 construct: purchased Carna Biosciences
# T20 sequence (Q13188 whole entry): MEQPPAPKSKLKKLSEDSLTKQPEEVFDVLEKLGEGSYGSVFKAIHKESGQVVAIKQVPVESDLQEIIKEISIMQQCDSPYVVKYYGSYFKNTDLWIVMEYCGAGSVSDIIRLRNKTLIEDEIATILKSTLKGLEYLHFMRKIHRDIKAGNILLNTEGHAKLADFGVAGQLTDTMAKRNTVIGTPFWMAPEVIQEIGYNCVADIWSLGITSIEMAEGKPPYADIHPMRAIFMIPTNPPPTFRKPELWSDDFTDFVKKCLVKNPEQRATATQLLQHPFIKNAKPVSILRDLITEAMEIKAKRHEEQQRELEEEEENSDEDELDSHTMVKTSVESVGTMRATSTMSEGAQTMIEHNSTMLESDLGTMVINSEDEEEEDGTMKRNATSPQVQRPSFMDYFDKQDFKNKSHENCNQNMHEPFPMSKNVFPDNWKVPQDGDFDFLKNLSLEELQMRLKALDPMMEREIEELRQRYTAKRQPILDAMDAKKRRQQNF
# [22] = target: T21, TEC (Homo sapiens, UniProt P42680); assay: mobility shift assay
# T21 construct: purchased Carna Biosciences
# [23] = target: T22, MAP2K5 Cascade (Homo sapiens, UniProt Q13163); assay: mobility shift assay
# T22 construct: purchased Carna Biosciences
# T22 sequence (Q13163 whole entry): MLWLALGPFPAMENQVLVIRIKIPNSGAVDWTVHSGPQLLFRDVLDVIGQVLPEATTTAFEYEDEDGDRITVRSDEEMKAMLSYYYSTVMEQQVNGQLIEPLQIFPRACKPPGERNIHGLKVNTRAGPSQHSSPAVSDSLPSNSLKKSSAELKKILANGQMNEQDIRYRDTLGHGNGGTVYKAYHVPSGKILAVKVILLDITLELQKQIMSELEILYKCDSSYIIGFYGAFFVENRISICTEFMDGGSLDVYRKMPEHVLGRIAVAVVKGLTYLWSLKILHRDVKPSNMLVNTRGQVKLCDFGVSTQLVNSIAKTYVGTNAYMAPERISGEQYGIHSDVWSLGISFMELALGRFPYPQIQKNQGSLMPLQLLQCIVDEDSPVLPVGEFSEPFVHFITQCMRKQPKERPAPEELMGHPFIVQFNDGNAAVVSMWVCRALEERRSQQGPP
# [24] = target: T23, RET(M918T) (Homo sapiens, UniProt P07949, M918T); assay: mobility shift assay
# T23 construct: purchased Carna Biosciences
# [25] = target: T24, JAK3 (Homo sapiens, UniProt P52333); assay: mobility shift assay
# T24 construct: purchased Carna Biosciences
# [26] = target: T25, PGK (Homo sapiens, UniProt Q13976); assay: mobility shift assay
# T25 construct: purchased Carna Biosciences
# [27] = target: T26, EPHB3 (Homo sapiens, UniProt P54753); assay: mobility shift assay
# T26 construct: purchased Carna Biosciences
# [28] = target: T27, CK1γ2 (Homo sapiens, UniProt P78368); assay: mobility shift assay
# T27 construct: purchased Carna Biosciences
# [29] = target: T28, p38B (Homo sapiens, UniProt Q15759); assay: mobility shift assay
# T28 construct: purchased Carna Biosciences
# [30] = target: T29, ROCK2 (Homo sapiens, UniProt O75116); assay: mobility shift assay
# T29 construct: purchased Carna Biosciences
# [31] = target: T30, FGR3(K650E) (Homo sapiens, UniProt P22607, K650E); assay: mobility shift assay
# T30 construct: purchased Carna Biosciences
# [32] = target: T31, PKCη (Homo sapiens, UniProt P24723); assay: mobility shift assay
# T31 construct: purchased Carna Biosciences
# [33] = target: T32, NEK1 (Homo sapiens, UniProt Q96PY6); assay: mobility shift assay
# T32 construct: purchased Carna Biosciences
smiles,measurement,setting,value
"C[C@@H]1CC[C@H]2C(C)(C)CCC[C@]2(C)c2c1oc1c(C=O)c(O)c(O)cc21 [LG-1, liphagal]",inhibition at 10 µM,[1],17.4%
same,inhibition at 10 µM,[2],-4.4%
same,inhibition at 10 µM,[3],12.4%
same,inhibition at 10 µM,[4]; CDK7/CycHMAT1,85.8%
same,inhibitory activity against CDK7,"[4]; in words, 10 μM",Potent inhibitory activity
same,inhibition at 10 µM,[5],2.1%
same,inhibition at 10 µM,[6],8.7%
same,inhibition at 10 µM,[7],19.9%
same,inhibition at 10 µM,[8],8.4%
same,inhibition at 10 µM,[9],13.2%
same,inhibition at 10 µM,[10],11.3%
same,inhibition at 10 µM,[11],51.4%
same,inhibition at 10 µM,[12],8.7%
same,inhibition at 10 µM,[13],19.5%
same,inhibition at 10 µM,[14],2.7%
same,inhibition at 10 µM,[15],14.7%
same,inhibition at 10 µM,[16],13.9%
same,inhibition at 10 µM,[17],12.4%
same,inhibition at 10 µM,[18],24.5%
same,inhibition at 10 µM,[19],2.1%
same,inhibition at 10 µM,[20],22.3%
same,inhibition at 10 µM,[21],7.6%
same,inhibition at 10 µM,[22],-1.2%
same,inhibition at 10 µM,[23],-1.3%
same,inhibition at 10 µM,[24],5.9%
same,inhibition at 10 µM,[25],-7.2%
same,inhibition at 10 µM,[26],6.1%
same,inhibition at 10 µM,[27],1.7%
same,inhibition at 10 µM,[28],-2.8%
same,inhibition at 10 µM,[29],9.1%
same,inhibition at 10 µM,[30],2%
same,inhibition at 10 µM,[31],-8.4%
same,inhibition at 10 µM,[32],-34.3%
same,inhibition at 10 µM,[33],13.9%
